According to US20260174791A1, “MACROPHAGE MIGRATION INHIBITORY FACTOR (MIF) TARGETING FOR THE TREATMENT OF NON-SMALL CELL LUNG CANCER” (Board of Regents, The University of Texas System, priority 2022, published 2026):

Assays:
[1] = system: NSCLC patients with STK11/LKB1 and/or KEAP1 mutations; assay: Clinical data, pembrolizumab plus first-line chemotherapy in NSCLC patients; type: in vivo, human
Text: FIG. 1A is a graph illustrating response rates to pemetrexed/platin/pembrolizumab (PCP) chemo-immunotherapy in STK11 and KEAP1-defined wild type (wt) and mutant subgroups. FIG. 1B is a graph illustrating response rates to pemetrexed/platin/pembrolizumab (PCP) chemo-immunotherapy in STK11 and KEAP1-defined wild type (wt) and mutant subgroups. […] FIG. 1D a Kaplan-Mayer graph illustrating overall survival of STK11/LKB1 and KEAP1 mutant or wt defined patients.

[2] = system: lung cancer patients, EGFR or KRAS mutation; conditions: patients who harbor an EGFR mutation; cited from earlier work

Compound | refractory disease on pembrolizumab plus standard care first-line chemotherapies ([1]; NSCLC patients (n=139), STK11/LKB1 and/or KEAP1 mutant vs wild type) | clinical benefit (survival) of adding pembrolizumab to chemotherapy ([1]; patients with STK11 and/or KEAP1 genomic alterations, vs chemotherapy alone) | response rate [2] [%]
pembrolizumab | higher percentage of patients with refractory diseases | did not result in clinical benefit | –
C#Cc1cccc(Nc2ncnc3cc(OCCOC)c(OCCOC)cc23)c1 [erlotinib] | – | – | 60
